Reference: patent US20060084704A1, “Methods and compositions for enhancing degradation of nuclear receptor transcription factors and uses thereof” (priority 2004, published 2006)

Legend:
androgen receptor (AR) = target: T1, androgen receptor (AR) (Homo sapiens, UniProt P10275, T878A); test: Western blot of LNCaP cell lysates, AR; assay type: cell-based; conditions: 1 or 2 micromolar, 24 hours, presence or absence of DHT
T1 construct: LNCaP cells express an endogenous mutant AR that is found in prostate cancer patients; host or cells: LNCaP
T1 sequence (P10275 1-920 T878A): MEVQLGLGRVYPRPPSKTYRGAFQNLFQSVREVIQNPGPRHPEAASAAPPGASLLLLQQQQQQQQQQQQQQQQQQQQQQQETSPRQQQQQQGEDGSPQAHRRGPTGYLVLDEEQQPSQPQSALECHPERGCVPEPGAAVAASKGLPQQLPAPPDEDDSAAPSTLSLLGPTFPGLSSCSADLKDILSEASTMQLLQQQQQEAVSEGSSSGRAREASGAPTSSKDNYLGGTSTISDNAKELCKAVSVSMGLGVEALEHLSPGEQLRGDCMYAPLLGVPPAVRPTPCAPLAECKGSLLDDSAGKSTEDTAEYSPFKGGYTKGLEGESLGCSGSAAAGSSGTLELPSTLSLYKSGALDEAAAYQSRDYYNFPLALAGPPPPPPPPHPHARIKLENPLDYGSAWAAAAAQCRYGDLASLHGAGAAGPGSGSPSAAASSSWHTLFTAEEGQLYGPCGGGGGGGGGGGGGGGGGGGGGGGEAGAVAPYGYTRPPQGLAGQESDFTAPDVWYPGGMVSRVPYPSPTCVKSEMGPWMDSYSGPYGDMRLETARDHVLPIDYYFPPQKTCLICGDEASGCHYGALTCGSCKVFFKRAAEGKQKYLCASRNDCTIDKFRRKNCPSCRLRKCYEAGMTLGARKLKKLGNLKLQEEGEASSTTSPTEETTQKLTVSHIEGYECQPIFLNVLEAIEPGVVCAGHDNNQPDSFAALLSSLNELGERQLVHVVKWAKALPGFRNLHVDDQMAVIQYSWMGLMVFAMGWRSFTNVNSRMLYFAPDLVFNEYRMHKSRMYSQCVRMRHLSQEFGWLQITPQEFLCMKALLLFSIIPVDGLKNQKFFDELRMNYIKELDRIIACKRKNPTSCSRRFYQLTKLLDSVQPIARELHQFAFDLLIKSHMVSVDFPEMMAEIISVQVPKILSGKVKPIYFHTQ
Description: (§1) Human prostate cancer LNCaP cells and T47D cells were plated at a density of 7×10^5 cells per 60 millimeter tissue culture dish in […] (RPMI) medium containing 10% FBS. The medium was changed to RPMI or DME medium containing 10% charcoal-stripped serum 24 hours later to deplete cellular androgens or estrogens. After another 24 hours, treatment with the test compounds began. The test dose of JC15 was 1 or 2 micromolar and the test does of JC9 was 1, 5 and 10 micromolar. LNCap cells also received dihydrotestosterone (DHT) (3 nanomolar). Control cells received a corresponding amount of the vehicle, dimethylsulfoxide (DMSO) (<0.04%) for an equivalent exposure time. Cells were incubated with JC15 for 24 or 48 hours, and were lysed in 250 microliters of 1×SDS/PAGE loading buffer. Approximately 40 micrograms of total cellular protein was loaded in each lane of a pre-cast gel (NuPAGE, Invitrogen). Protein separation and transfer were performed following the manufacturer's instructions.
(§2) For the prostate cell lysates, androgen receptor (AR) protein was visualized by incubating the resultant membranes with an anti-AR antibody (BD-PharMingen), followed by chemiluminescence detection (ECL Plus, Amersham). […] The resultant protein signals were quantified using densitometry and NIH ImageJ software.

glucocorticoid receptor = target: T2, glucocorticoid receptor (Homo sapiens, UniProt P04150); test: Western blot of LNCaP cell lysates, GR; assay type: cell-based; conditions: 1 or 2 micromolar, 24 hours, presence or absence of DHT
T2 construct: endogenous in cells; host or cells: LNCaP
T2 sequence (P04150 1-777): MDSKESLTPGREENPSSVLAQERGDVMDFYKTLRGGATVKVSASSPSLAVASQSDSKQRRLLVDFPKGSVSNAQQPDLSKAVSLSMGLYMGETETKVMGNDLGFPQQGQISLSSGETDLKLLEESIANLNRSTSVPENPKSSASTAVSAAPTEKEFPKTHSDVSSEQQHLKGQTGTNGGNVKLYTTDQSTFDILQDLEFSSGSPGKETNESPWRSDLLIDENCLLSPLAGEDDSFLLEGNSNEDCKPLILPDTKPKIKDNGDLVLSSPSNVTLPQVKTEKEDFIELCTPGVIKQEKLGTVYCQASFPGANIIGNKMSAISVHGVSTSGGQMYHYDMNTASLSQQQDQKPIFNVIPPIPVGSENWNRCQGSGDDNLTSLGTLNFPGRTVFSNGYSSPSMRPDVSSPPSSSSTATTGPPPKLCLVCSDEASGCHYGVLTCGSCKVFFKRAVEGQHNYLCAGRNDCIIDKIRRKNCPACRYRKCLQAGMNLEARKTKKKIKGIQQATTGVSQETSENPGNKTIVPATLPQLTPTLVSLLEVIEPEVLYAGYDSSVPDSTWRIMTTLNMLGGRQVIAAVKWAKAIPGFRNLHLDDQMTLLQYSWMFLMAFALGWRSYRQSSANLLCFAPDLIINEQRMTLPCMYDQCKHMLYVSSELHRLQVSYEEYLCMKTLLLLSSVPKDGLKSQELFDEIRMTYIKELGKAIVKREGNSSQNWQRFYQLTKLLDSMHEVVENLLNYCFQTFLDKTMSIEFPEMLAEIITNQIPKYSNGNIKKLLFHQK
Description: as §1, §2

cellular concentration of AR (androgen receptor (AR)): decreased
cellular concentration of glucocorticoid receptor (glucocorticoid receptor): did not substantially affect
SMILES: CCOC(=O)CCC(C(=O)C=Cc1ccc(O)c(OC)c1)C(=O)C=Cc1ccc(O)c(OC)c1 (centres unmarked) [JC15, 7-(4-hydroxy-3-methoxyphenyl)-4-[3-(4-hydroxy-3-methoxyphenyl)acryloyl]-5-oxo-hept-6-enoic acid ethyl ester]
